Assay results: ChEMBL document CHEMBL2203066 (J Med Chem, 2012)

Biological target: Neuraminidase (Influenza A virus, UniProt Q6Q793)

## CCC(CC)O[C@@H]1C=C(P(=O)(O)O)C[C@H](NC(=N)N)[C@H]1NC(C)=O
  IC50: 0.04 nM

## CCOP(=O)(O)C1=C[C@@H](OC(CC)CC)[C@H](NC(C)=O)[C@@H](N)C1 [TAMIPHOSPHOR MONOETHYL ESTER]
  IC50: 2.2 nM
